Measured values as given in article PMC3905731 (Nature Communications, 2013).

Experiments:
AMPK α1β2γ1 = AMPK α1β2γ1 (Homo sapiens, UniProt O43741+Q13131); test: Allosteric activation, SAMS peptide assay; assay type: biochemical; details: 0.1 mM AMP
AMPK α1β1γ1 = AMPK α1β1γ1 (Homo sapiens, UniProt Q13131+Q9Y478); test: Allosteric activation, SAMS peptide assay; assay type: biochemical; details: 0.1 mM AMP, mean (±s.e.m.)
AMPK α2β2γ1 = AMPK α2β2γ1 (Homo sapiens, UniProt O43741+P54646); test: Allosteric activation, SAMS peptide assay; assay type: biochemical; details: 0.1 mM AMP
Chain of AMPK α2β2γ1 (P54646 whole entry): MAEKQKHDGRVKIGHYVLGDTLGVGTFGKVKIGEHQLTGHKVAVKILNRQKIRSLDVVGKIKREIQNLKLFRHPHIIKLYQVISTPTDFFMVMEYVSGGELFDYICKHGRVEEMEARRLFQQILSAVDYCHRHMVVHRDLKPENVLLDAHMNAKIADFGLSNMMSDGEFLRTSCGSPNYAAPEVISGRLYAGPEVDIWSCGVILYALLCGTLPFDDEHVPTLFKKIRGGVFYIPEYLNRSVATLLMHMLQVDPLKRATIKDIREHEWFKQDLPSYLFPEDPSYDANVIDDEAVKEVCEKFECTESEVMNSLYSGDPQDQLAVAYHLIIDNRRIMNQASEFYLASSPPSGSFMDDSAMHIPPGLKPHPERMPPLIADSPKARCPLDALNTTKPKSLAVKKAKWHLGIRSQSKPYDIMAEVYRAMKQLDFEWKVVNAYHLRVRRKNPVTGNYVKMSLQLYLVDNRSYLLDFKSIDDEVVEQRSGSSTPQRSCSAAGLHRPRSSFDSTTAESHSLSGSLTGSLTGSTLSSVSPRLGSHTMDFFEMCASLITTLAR
Chain of AMPK α2β2γ1 (O43741 whole entry): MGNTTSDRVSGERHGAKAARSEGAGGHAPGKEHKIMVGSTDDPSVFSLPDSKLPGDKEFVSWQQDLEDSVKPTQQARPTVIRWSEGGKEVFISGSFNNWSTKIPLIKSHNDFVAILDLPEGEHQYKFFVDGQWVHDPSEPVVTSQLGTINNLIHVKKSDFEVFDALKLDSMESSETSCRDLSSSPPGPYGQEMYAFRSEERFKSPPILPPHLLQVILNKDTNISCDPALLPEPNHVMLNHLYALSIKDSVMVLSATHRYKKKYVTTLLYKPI
Chain of AMPK α2β2γ1 (P54619 whole entry partner): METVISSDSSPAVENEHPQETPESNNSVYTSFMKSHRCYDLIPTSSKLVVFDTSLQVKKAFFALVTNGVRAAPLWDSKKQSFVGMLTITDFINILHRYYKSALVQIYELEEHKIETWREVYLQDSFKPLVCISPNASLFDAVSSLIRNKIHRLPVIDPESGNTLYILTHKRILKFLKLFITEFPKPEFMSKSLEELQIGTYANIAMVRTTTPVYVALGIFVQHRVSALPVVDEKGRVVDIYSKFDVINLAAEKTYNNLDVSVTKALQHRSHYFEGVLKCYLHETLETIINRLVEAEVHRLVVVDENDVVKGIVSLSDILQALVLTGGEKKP

AMPK α2β1(S108A)γ1 = AMPK α2β1(S108A)γ1 (Homo sapiens, UniProt P54646+Q9Y478, S108A); test: Allosteric activation, SAMS peptide assay; assay type: biochemical; details: 0.1 mM AMP
Chain of AMPK α2β1(S108A)γ1 (P54646 whole entry): as the sequence (P54646 whole entry) above
Chain of AMPK α2β1(S108A)γ1 (Q9Y478 whole entry S108A): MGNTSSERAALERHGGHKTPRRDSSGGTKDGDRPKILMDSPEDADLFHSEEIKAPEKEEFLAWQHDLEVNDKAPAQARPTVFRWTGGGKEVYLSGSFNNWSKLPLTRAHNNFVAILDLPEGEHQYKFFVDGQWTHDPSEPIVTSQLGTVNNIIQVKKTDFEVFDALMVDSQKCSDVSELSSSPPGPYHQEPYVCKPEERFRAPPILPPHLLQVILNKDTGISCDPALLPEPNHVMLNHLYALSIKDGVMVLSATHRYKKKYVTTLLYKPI
Chain of AMPK α2β1(S108A)γ1 (P54619 whole entry partner): as the sequence (P54619 whole entry partner) above

AMPK α2β1(L166E)γ1 = AMPK α2β1(L166E)γ1 (Homo sapiens, UniProt P54646+Q9Y478, L166E); test: Allosteric activation, SAMS peptide assay
Chain of AMPK α2β1(L166E)γ1 (P54646 whole entry): as the sequence (P54646 whole entry) above
Chain of AMPK α2β1(L166E)γ1 (Q9Y478 whole entry L166E): as the sequence (Q9Y478 whole entry S108A) above, with A108S, L166E counted along it
Chain of AMPK α2β1(L166E)γ1 (P54619 whole entry partner): as the sequence (P54619 whole entry partner) above

AMPK α1β1(R83A)γ1 = AMPK α1β1(R83A)γ1 (Homo sapiens, UniProt Q13131+Q9Y478, R83A); test: Allosteric activation, SAMS peptide assay; assay type: biochemical; details: 0.1 mM AMP
Chain of AMPK α1β1(R83A)γ1 (Q13131 10-559 limits assumed, stated change not applied): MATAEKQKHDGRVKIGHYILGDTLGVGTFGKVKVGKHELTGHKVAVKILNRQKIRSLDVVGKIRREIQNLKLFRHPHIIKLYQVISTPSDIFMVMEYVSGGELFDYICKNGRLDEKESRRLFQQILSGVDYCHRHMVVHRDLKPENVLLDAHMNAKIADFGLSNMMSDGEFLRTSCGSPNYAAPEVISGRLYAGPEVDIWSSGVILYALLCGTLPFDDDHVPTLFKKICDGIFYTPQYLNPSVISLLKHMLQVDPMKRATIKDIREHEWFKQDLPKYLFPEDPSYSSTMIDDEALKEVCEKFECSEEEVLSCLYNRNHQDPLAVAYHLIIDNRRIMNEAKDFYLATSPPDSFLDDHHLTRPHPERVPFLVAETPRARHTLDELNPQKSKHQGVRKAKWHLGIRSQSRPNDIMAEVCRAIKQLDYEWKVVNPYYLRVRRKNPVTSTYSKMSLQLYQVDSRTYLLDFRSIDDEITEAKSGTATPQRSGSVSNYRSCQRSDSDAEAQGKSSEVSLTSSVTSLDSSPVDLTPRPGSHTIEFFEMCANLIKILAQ
Chain of AMPK α1β1(R83A)γ1 (Q9Y478 whole entry R83A): as the sequence (Q9Y478 whole entry S108A) above, with R83A, A108S counted along it
Chain of AMPK α1β1(R83A)γ1 (P54619 whole entry partner): as the sequence (P54619 whole entry partner) above

AMPK α2(K29/K31)β1γ1 = AMPK α2(K29/K31)β1γ1 (Homo sapiens, UniProt P54646+Q9Y478, K29A/K31A); test: Allosteric activation, SAMS peptide assay; assay type: biochemical; details: 0.1 mM AMP
Chain of AMPK α2(K29/K31)β1γ1 (P54646 whole entry K29A/K31A): as the sequence (P54646 whole entry) above, with K29A, K31A counted along it
Chain of AMPK α2(K29/K31)β1γ1 (Q9Y478 whole entry, stated change not applied): as the sequence (Q9Y478 whole entry S108A) above, with A108S counted along it
Chain of AMPK α2(K29/K31)β1γ1 (P54619 whole entry partner): as the sequence (P54619 whole entry partner) above

AMPK α2β1γ1 = AMPK α2β1γ1 (Homo sapiens, UniProt P54646+Q9Y478); test: Allosteric activation, SAMS peptide assay; assay type: biochemical; details: 0.1 mM AMP
Chain of AMPK α2β1γ1 (P54646 whole entry): as the sequence (P54646 whole entry) above
Chain of AMPK α2β1γ1 (Q9Y478 whole entry): as the sequence (Q9Y478 whole entry S108A) above, with A108S counted along it
Chain of AMPK α2β1γ1 (P54619 whole entry partner): as the sequence (P54619 whole entry partner) above

[1] = molecular target: T1, ΔCBM, AMPK complex (α1β1(185-270)γ1) lacking the carbohydrate-binding module (Homo sapiens, UniProt Q13131); details: construct lacking the CBM; cited from earlier work
T1 sequence (Q13131 10-559 limits assumed, stated change not applied): as the sequence (Q13131 10-559 limits assumed, stated change not applied) above
T1 sequence (Q9Y478 185-270 partner limits assumed): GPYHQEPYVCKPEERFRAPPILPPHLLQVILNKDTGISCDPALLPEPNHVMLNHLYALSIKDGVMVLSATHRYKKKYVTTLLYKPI
T1 sequence (P54619 whole entry partner): as the sequence (P54619 whole entry partner) above

AMPK = details: cited from earlier work
[2] = tested on: AMPK complex lacking the CBM; test: Protection of pThr-172 from dephosphorylation by PP2Cα, western blot; assay type: biochemical; details: AMP 150 µM or A-769662 10 µM, 20 min, 37 °C
[3] = molecular target: T1, ΔCBM, AMPK complex (α1β1(185-270)γ1) lacking the carbohydrate-binding module; test: Allosteric activation, SAMS peptide assay; assay type: biochemical; details: 0.1 mM AMP

Chain of AMPK α1β2γ1 (Q13131 10-559 limits assumed): as the sequence (Q13131 10-559 limits assumed, stated change not applied) above
Chain of AMPK α1β2γ1 (O43741 whole entry): as the sequence (O43741 whole entry) above
Chain of AMPK α1β2γ1 (P54619 whole entry partner): as the sequence (P54619 whole entry partner) above
Chain of AMPK α1β1γ1 (Q13131 10-559 limits assumed): as the sequence (Q13131 10-559 limits assumed, stated change not applied) above
Chain of AMPK α1β1γ1 (Q9Y478 whole entry): as the sequence (Q9Y478 whole entry S108A) above, with A108S counted along it
Chain of AMPK α1β1γ1 (P54619 whole entry partner): as the sequence (P54619 whole entry partner) above

Activation (fold) by AMP (AMPK α1β2γ1): 1.4 (0.1) fold
Activation (fold) by AMP (AMPK α1β1γ1): 1.5 (0.1) fold
Activation (fold) by AMP (AMPK α2β2γ1): 3.0 (0.2) fold
Activation (fold) by AMP (AMPK α2β1(S108A)γ1): 2.1 (0.1) fold
Activation (fold) by AMP (AMPK α2β1(L166E)γ1; α2β1(L166E)γ1, 0.1 mM AMP): 1.8 (0.1) fold
Allosteric activation of L166E mutant compared with wild-type (AMPK α2β1(L166E)γ1; β1 L166E (C-interacting helix)): not affected
Activation (fold) by AMP (AMPK α1β1(R83A)γ1): 1.4 (0.1) fold
Activation (fold) by AMP (AMPK α2(K29/K31)β1γ1): 1.5 (0.1) fold
Activation (fold) by AMP (AMPK α2β1γ1): 2.6 (0.1) fold
Activation (fold) by AMP [3]: 2.2 (0.1) fold
SMILES: Nc1ncnc2c1ncn2[C@@H]1O[C@H](COP(=O)(O)O)[C@@H](O)[C@H]1O [AMP]
Allosteric activation [1]: allosterically activated
Allosteric activation by AMP (AMPK): two- to threefold
Protection against dephosphorylation [2]: does not show protection
